Data as given in US9227971B2, “Pyrazolo[1,5-a]pyrimidine compounds as mTOR inhibitors” (Merck Sharp & Dohme Corp., priority 2010, dated 2016).
pIC50: −log10 of the molar value. Where two headings read alike, the source gives them in different places.

Columns and labels:
[1] = tested on: phosphorylated 4E-BP1 Thr37/46 (p4E-BP1 Thr37/46), mTORC1 activity, PC3 cells; assay: mTOR target engagement assay, immunofluorescent cell-based, p4E-BP1 Thr37/46 readout (mTORC1 activity)
Method in brief: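 PTEN-mutant PC3 prostate cells were treated with serially diluted compound in 5% FBS F12 medium (0.25% DMSO) for ninety minutes at 37° C, glyoxal-fixed, then immunostained overnight at 4° C for p4E-BP1 Thr37/46 with an Alexa Fluor 488 secondary. IC50 came from four-parameter fits of fluorescence, DMSO-only wells defining 100%.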

[2] = tested on: phosphorylated AKT Ser473 (pAKT S473), mTORC2 activity, PC3 cells; assay: mTOR target engagement assay, immunofluorescent cell-based, pAKT S473 readout (mTORC2 activity)
Method in brief: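 After blocking, cells were stained overnight at 4 °C with anti-pAKT S473 antibody, then a fluorescent secondary; inhibition was read as reduced fluorescence intensity.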

[3] = Homo sapiens, PC-3, Table 6-1, PC3 cells
[4] = Homo sapiens, PC-3, Table 3-1, PC3 cells, read-out: p4E-BP1 Thr37/46 IC50
[5] = Homo sapiens, PC-3, Table 3-1, PC3 cells
[6] = Homo sapiens, PC-3, Table 6-1, PC3 cells, read-out: p4E-BP1 Thr37/46 IC50
[7] = Homo sapiens, PC-3, PC3 cells, read-out: p4E-BP1 Thr37/46 IC50
[8] = Homo sapiens, PC-3, PC3 cells, compound treatment ninety minutes at 37° C., read-out: p4E-BP1 Thr37/46 IC50
[9] = Homo sapiens, PC-3, PC3 cells, compound treatment ninety minutes at 37° C.

## CC(=O)c1c([C@@H]2C[C@H]3CC[C@@H](C2)N3C(=O)CF)nc2c(-c3ccc(-c4ncc[nH]4)nc3)cnn2c1N [Compound 6.22, 1-((1R,3s,5S)-3-(3-(6-(1H-imidazol-2-yl)pyridin-3-yl)-6-acetyl-7-aminopyrazolo[1,5-a]pyrimidin-5-yl)-8-azabicyclo[3.2.1]octan-8-yl)-2-fluoroethanone]
[1]; Homo sapiens, PC-3, read-out: p4E-BP1 Thr37/46 IC50
  pIC50: 7.00 to 9.00
[2]; [3]
  pIC50: 7.00 to 9.00

## CS(=O)(=O)c1c([C@@H]2C[C@H]3CC[C@@H](C2)N3C(=O)[C@H](O)CO)nc2c(-c3ccc(-c4ccccc4)nc3)cnn2c1N [Compound 3.7, (R)-1-((1R,3S,5S)-3-(7-amino-6-(methylsulfonyl)-3-(6-phenylpyridin-3-yl)pyrazolo[1,5-a]pyrimidin-5-yl)-8-azabicyclo[3.2.1]octan-8-yl)-2,3-dihydroxypropan-1-one]
[1]; [4]
  pIC50: 5.00 to 6.00
[2]; [5]
  pIC50: 6.00 to 7.00

## CC(=O)c1c([C@@H]2C[C@H]3CC[C@@H](C2)N3S(C)(=O)=O)nc2c(-c3ccc(-c4ncc[nH]4)nc3)cnn2c1N [Compound 6.10, 1-(3-(6-(1H-imidazol-2-yl)pyridin-3-yl)-7-amino-5-((1R,3s,5S)-8-(methylsulfonyl)-8-azabicyclo[3.2.1]octan-3-yl)pyrazolo[1,5-a]pyrimidin-6-yl)ethanone]
[1]; [6]
  pIC50: 7.00 to 9.00
[2]; [3]
  pIC50: 7.00 to 9.00

## COCCOc1nnc(C(=O)N2C3CCC2CC(c2nc4c(-c5ccc(-c6ccccc6)nc5)cnn4c(N)c2C2CC2)C3)[nH]1 [Compound 8.100, ((1R,3s,5S)-3-(7-amino-6-cyclopropyl-3-(6-phenylpyridin-3-yl)pyrazolo[1,5-a]pyrimidin-5-yl)-8-azabicyclo[3.2.1]octan-8-yl)(5-(2-methoxyethoxy)-4H-1,2,4-triazol-3-yl)methanone]
[1]; [7]
  pIC50: 6.00 to 7.00
[2]; Homo sapiens, PC-3, PC3 cells
  pIC50: 6.00 to 7.00

## Nc1c(C2CC2)c(C2CC3CCC(C2)N3C(=O)c2nnc(N3CCOCC3)[nH]2)nc2c(-c3ccc(-c4ccccc4)nc3)cnn12 [Compound 8.105, ((1R,3s,5S)-3-(7-amino-6-cyclopropyl-3-(6-phenylpyridin-3-yl)pyrazolo[1,5-a]pyrimidin-5-yl)-8-azabicyclo[3.2.1]octan-8-yl)(5-morpholino-4H-1,2,4-triazol-3-yl)methanone]
[1]; [7]
  pIC50: 5.00 to 6.00
[2]; Homo sapiens, PC-3, PC3 cells
  pIC50: 5.00 to 6.00

## CCC(O)c1ccc(-c2cnn3c(N)c(C(C)=O)c([C@@H]4C[C@H]5CC[C@@H](C4)N5C(=O)c4nnc[nH]4)nc23)cn1 (stereo partly shown) [Compound 7.3]
[1]; [8]
  pIC50: 6.00 to 7.00
[2]; [9]
  pIC50: 7.00 to 9.00

## COc1ccc(-c2ccc(-c3cnn4c(N)c(Br)c([C@@H]5C[C@H]6CC[C@@H](C5)N6C(=O)CO)nc34)cn2)cc1CO [Compound 2.2, 1-((1R,3s,5S)-3-(7-amino-6-bromo-3-(6-(3-(hydroxymethyl)-4-methoxyphenyl)pyridin-3-yl)pyrazolo[1,5-a]pyrimidin-5-yl)-8-azabicyclo[3.2.1]octan-8-yl)-2-hydroxyethanone]
[1]; [8]
  pIC50: 6.00 to 7.00
[2]; [9]
  pIC50: 7.00 to 9.00

## CCC(=O)NNc1ccc(-c2cnn3c(N)c(C(C)=O)c([C@@H]4C[C@H]5CC[C@@H](C4)N5C(=O)CO)nc23)cn1 [Compound 8.52, N′-(5-(6-acetyl-7-amino-5-((1R,3s,5S)-8-(2-hydroxyacetyl)-8-azabicyclo[3.2.1]octan-3-yl)pyrazolo[1,5-a]pyrimidin-3-yl)pyridin-2-yl)propionohydrazide]
[1]; [7]
  pIC50: < 5.00
[2]; Homo sapiens, PC-3, PC3 cells
  pIC50: 5.00 to 6.00

## Nc1c(C2(O)CC2)c([C@@H]2C[C@H]3CC[C@@H](C2)N3C(=O)c2nc[nH]n2)nc2c(-c3ccc(-c4ccccc4)nc3)cnn12 [Compound 8.39]
[1]; [7]
  pIC50: 5.00 to 6.00
[2]; Homo sapiens, PC-3, PC3 cells
  pIC50: 5.00 to 6.00

## Nc1c(C2CC2)c([C@@H]2C[C@H]3CC[C@@H](C2)N3C(=O)c2cc[nH]c2)nc2c(-c3ccc(-c4ncc[nH]4)nc3)cnn12 [Compound 6.14, ((1R,3s,5S)-3-(3-(6-(1H-imidazol-2-yl)pyridin-3-yl)-7-amino-6-cyclopropylpyrazolo [1,5-a]pyrimidin-5-yl)-8-azabicyclo[3.2.1]octan-8-yl)(1H-pyrrol-3-yl)methanone]
[1]; [6]
  pIC50: 6.00 to 7.00
[2]; [3]
  pIC50: 7.00 to 9.00

## CC(=O)c1c([C@@H]2C[C@H]3CC[C@@H](C2)N3C(=O)c2nnc(C)[nH]2)nc2c(-c3ccc(-c4ncc[nH]4)nc3)cnn2c1N [Compound 6.21, 1-(3-(6-(1H-imidazol-2-yl)pyridin-3-yl)-7-amino-5-((1R,3s,5S)-8-(5-methyl-4H-1,2,4-triazole-3-carbonyl)-8-azabicyclo[3.2.1]octan-3-yl)pyrazolo[1,5-a]pyrimidin-6-yl)ethanone]
[1]; [6]
  pIC50: 7.00 to 9.00
[2]; [3]
  pIC50: 7.00 to 9.00

## COC(=O)N1[C@@H]2CC[C@H]1C[C@H](c1nc3c(-c4ccc(-c5ncc[nH]5)nc4)cnn3c(N)c1C(C)=O)C2 [Compound 6.25, (1R,3s,5S)-methyl 3-(3-(6-(1H-imidazol-2-yl)pyridin-3-yl)-6-acetyl-7-aminopyrazolo[1,5-a]pyrimidin-5-yl)-8-azabicyclo[3.2.1]octane-8-carboxylate]
[1]; [6]
  pIC50: 7.00 to 9.00
[2]; [3]
  pIC50: 7.00 to 9.00

## CC(=O)c1c([C@@H]2C[C@H]3CC[C@@H](C2)N3C(=O)c2nc[nH]n2)nc2c(-c3ccc(-c4ncc(C(F)F)s4)nc3)cnn2c1N [Compound 1.1.26, 1-(5-((1R,3s,5S)-8-(1H-1,2,4-triazole-3-carbonyl)-8-azabicyclo[3.2.1]octan-3-yl)-7-amino-3-(6-(5-(difluoromethyl)thiazol-2-yl)pyridin-3-yl)pyrazolo[1,5-a]pyrimidin-6-yl)ethanone]
[1]; [8]
  pIC50: 6.00 to 7.00
[2]; [9]
  pIC50: 6.00 to 7.00

## COc1ccc(-c2ccc(-c3cnn4c(N)c(C5CC5)c([C@@H]5C[C@H]6CC[C@@H](C5)N6C(=O)c5nnc(N)[nH]5)nc34)cn2)cc1F [Compound 4.27, (5-amino-4H-1,2,4-triazol-3-yl)((1R,3a,5S)-3-(7-amino-6-cyclopropyl-3-(6-(3-fluoro-4-methoxyphenyl)pyridin-3-yl)pyrazolo[1,5-a]pyrimidin-5-yl)-8-azabicyclo[3.2.1]octan-8-yl)methanone]
[1]; [8]
  pIC50: 7.00 to 9.00
[2]; [9]
  pIC50: 7.00 to 9.00

## CCC(O)c1ccc(-c2cnn3c(N)c(S(C)(=O)=O)c([C@@H]4C[C@H]5CC[C@@H](C4)N5C(=O)c4nnc[nH]4)nc23)cn1 (stereo partly drawn) [Compound 7.26, ((1R,3s,5S)-3-(7-amino-3-(6-(1-hydroxypropyl)pyridin-3-yl)-6-(methylsulfonyl)pyrazolo[1,5-a]pyrimidin-5-yl)-8-azabicyclo[3.2.1]octan-8-yl)(4H-1,2,4-triazol-3-yl)methanone]
[1]; Homo sapiens, PC-3, Table 7-2, PC3 cells, read-out: p4E-BP1 Thr37/46 IC50
  pIC50: 6.00 to 7.00
[2]; Homo sapiens, PC-3, Table 7-2, PC3 cells
  pIC50: 6.00 to 7.00

## CS(=O)(=O)c1c([C@@H]2C[C@H]3CC[C@@H](C2)N3C(=O)c2nnc[nH]2)nc2c(-c3ccc(-c4cn[nH]c4)nc3)cnn2c1N [Compound 3.109, ((1R,3s,5S)-3-(3-(6-(1H-pyrazol-4-yl)pyridin-3-yl)-7-amino-6-(methylsulfonyl)pyrazolo[1,5-a]pyrimidin-5-yl)-8-azabicyclo[3.2.1]octan-8-yl)(4H-1,2,4-triazol-3-yl)methanone]
[1]; [4]
  pIC50: 5.00 to 6.00
[2]; [5]
  pIC50: 5.00 to 6.00

## CC(=O)c1c([C@@H]2C[C@H]3CC[C@@H](C2)N3C(=O)c2nnc[nH]2)nc2c(-c3ccc4ccc(F)cc4c3)cnn2c1N [Compound 1.1.38, 1-(5-((1R,3s,5S)-8-(4H-1,2,4-triazole-3-carbonyl)-8-azabicyclo[3.2.1]octan-3-yl)-7-amino-3-(7-fluoronaphthalen-2-yl)pyrazolo[1,5-a]pyrimidin-6-yl)ethanone]
[1]; PC3 cells, compound treatment ninety minutes at 37° C., read-out: p4E-BP1 Thr37/46 IC50
  pIC50: 7.00 to 9.00
[2]; PC3 cells, compound treatment ninety minutes at 37° C.
  pIC50: 6.00 to 7.00
